Reference: ChEMBL document CHEMBL5104158, “Synthesis and human monoamine oxidase inhibitory activity of novel C2-, C3- and C4-substituted phthalonitriles” (Bioorg Med Chem Lett, 2022)

Columns and labels:
[1] = molecular target: T1, Amine oxidase [flavin-containing] B (Homo sapiens, UniProt P27338); assay: Inhibition of human MAO-B assessed as inhibition of H2O2 production using p-tyramine as substrate
T1 sequence (P27338 whole entry): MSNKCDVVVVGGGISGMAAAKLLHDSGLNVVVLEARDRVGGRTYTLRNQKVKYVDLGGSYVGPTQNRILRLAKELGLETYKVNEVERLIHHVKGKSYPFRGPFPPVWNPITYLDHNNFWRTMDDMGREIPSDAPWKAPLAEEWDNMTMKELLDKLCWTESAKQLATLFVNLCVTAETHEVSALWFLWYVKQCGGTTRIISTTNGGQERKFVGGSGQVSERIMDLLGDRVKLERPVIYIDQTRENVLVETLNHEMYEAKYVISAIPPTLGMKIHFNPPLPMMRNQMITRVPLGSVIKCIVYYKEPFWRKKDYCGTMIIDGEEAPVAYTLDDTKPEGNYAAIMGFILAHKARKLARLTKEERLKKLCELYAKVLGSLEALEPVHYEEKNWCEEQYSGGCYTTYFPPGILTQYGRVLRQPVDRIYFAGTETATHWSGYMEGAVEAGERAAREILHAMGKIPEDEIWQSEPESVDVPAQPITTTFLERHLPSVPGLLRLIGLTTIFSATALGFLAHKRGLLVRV

[2] = molecular target: T2, Amine oxidase [flavin-containing] A (Homo sapiens, UniProt P21397); assay: Inhibition of human MAO-A assessed as inhibition of H2O2 production using p-tyramine as substrate
T2 sequence (P21397 whole entry): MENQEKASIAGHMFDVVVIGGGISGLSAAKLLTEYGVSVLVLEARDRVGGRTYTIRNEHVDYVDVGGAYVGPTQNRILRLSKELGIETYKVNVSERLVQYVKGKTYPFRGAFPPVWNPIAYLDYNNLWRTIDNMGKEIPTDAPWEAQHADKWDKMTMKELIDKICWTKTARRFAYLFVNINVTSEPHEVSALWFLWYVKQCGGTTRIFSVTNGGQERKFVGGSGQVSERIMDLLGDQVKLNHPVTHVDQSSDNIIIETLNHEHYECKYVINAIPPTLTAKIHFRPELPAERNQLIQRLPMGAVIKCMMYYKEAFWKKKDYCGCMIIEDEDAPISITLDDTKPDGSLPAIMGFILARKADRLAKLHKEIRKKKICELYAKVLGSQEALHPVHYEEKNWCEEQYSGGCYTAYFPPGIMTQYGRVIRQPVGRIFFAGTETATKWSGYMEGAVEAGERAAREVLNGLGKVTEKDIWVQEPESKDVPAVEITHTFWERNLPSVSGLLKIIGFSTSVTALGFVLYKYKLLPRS

Homo sapiens = organism: Homo sapiens; assay: Selectivity index, ratio of IC50 for inhibition of human MAO-A to IC50 for inhibition of human MAO-B
[3] = molecular target: T2, Amine oxidase [flavin-containing] A; assay: Inhibition of human MAO-A assessed as inhibition of H2O2 production using p-tyramine as substrate at 100 uM
[4] = molecular target: T1, Amine oxidase [flavin-containing] B; assay: Inhibition of human MAO-B assessed as enzyme residual activity using p-tyramine as substrate
[5] = molecular target: T1, Amine oxidase [flavin-containing] B; assay: Mixed competitive inhibition of human MAO-B using p-tyramine as substrate by Lineweaver-Burk plot analysis
[6] = molecular target: T1, Amine oxidase [flavin-containing] B; assay: Reversible inhibition of human MAO-B assessed as enzyme residual activity using p-tyramine as substrate measured after dialysis by dialysis method

| Compound | IC50 [1] | IC50 [2] | Ratio IC50 (Homo sapiens) | inhibition at 100 µM [3] | Activity [4] | Ki [5] | Activity [6] |
| --- | --- | --- | --- | --- | --- | --- | --- |
| COc1cc(S)c(/N=N/c2cccc(C#N)c2C#N)cc1OC | 80300 nM | 17800 nM | 0.22 | – | – | – | – |
| N#Cc1ccc(/N=N/c2ccc(O)c(-c3ccccc3)c2)cc1C#N | 1120 nM | 780 nM | 0.69 | – | – | – | – |
| COc1ccc(/N=N/c2ccc(C#N)c(C#N)c2)cc1-c1ccccc1 | 1440 nM | 890 nM | 0.62 | – | – | – | – |
| COc1cc(S)c(/N=N/c2ccc(C#N)c(C#N)c2)cc1OC | 740 nM | 55600 nM | 75.2 | – | 34.8% | 77.5 nM | 83.3% |

More lines, now with the values ahead:

| IC50 [1] | IC50 [2] | Ratio IC50 (Homo sapiens) | inhibition at 100 µM [3] | Activity [4] | Ki [5] | Activity [6] | Compound |
| --- | --- | --- | --- | --- | --- | --- | --- |
| 3820 nM | – | > 26.2 | 27% | – | – | – | CC(=O)Oc1ccc(-c2ccccc2)cc1/N=N/c1ccc(C#N)c(C#N)c1 |
| 700 nM | 29400 nM | 42 | – | – | – | – | N#Cc1ccc(/N=N/c2cc(-c3ccccc3)ccc2O)cc1C#N |
